Source: PMC11410929, “Biochemical and crystallographic studies of L,D-transpeptidase 2 from Mycobacterium tuberculosis with its natural monomer substrate” (Communications Biology, 2024)

tested on: LdtMt2^C354S; type: biochemical, Mycobacterium tuberculosis

With “GlcNAc-MurNAc-L-Ala-D-iGluNH2-m-DAPNH2-D-Ala [Compound 1]” as the substance, how does the “Product formation with LdtMt2^C354S” value read?
Its value is “no product formation was observed”.

Which “Product formation with LdtMt2^C354S” value does the source give for “GlcNAc-Muramitol-L-Ala-D-iGluNH2-m-DAPNH2-D-Ala [Compound 2]” here?
Its value is “no product formation was observed”.

For “lactoyl-L-Ala-D-iGluNH2-m-DAPNH2-D-Ala [Compound 3]”, which “Product formation with LdtMt2^C354S” value is on record?
The value was “no product formation was observed”.
